# According to patent publication US12338484B2, “FRET biosensor for detecting and reporting NAD+/NADH ratio changes” (Sartorius BioAnalytical Instruments, Inc., priority 2022, dated 2025):
# Assays:
# Type in all cases: biochemical
# Parameters in all cases: key: Good response: Constructs with very clear and robust spectra separation; Poor response: those with noticeable but small spectra separation; No response: those having no spectra separation
# [1] = molecular target: T1, Thermus aquaticus T-Rex FRET fusion, initial construct #1, mKOk-Rex(78-189)-cpmEGFP(145/146)-Rex(190-211)-Rex(78-211), SEQ ID NO: 161 (Thermus aquaticus, UniProt Q9X2V5, INS189[…]); experiment: FRET response (emission spectra) of purified initial construct #1 in absence or presence of 40 uM NADH
# T1 construct: His-tag purified from E. coli (pET28c)
# Experimental: (§1) 16 initial FRET constructs (See Table 3) were constructed using expression vector pET28c with a T7 promoter and lac operator and expressed in E. coli. Cells were collected and lysed using a commercially-available lysis buffer. Proteins of interest were isolated from the lysates using Ni-NTA magnetic beads. Eluted proteins were subjected to buffer exchange and final protein concentrating. To test performance of the initial FRET constructs, their emission spectra was recorded on a plate reader in absence or presence of 40 uM NADH. Resulting emission spectra with or without the ligand were normalized and overlaid for each construct. Constructs with very clear and robust spectra separation were labeled as having “good response”, those with noticeable but small spectra separation were labeled as having “poor response”, and finally those having no spectra separation were labeled as having “no response”.
# [2] = molecular target: T2, Thermus aquaticus T-Rex FRET fusion, initial construct #6, Rex(78-189)-cpmEGFP(173/174)-Rex(190-211)-Rex(78-211)-mKOk, SEQ ID NO: 166 (Thermus aquaticus, UniProt Q9X2V5, INS189[…]); experiment: FRET response (emission spectra) of purified initial construct #6 in absence or presence of 40 uM NADH
# T2 construct: His-tag purified from E. coli
# Experimental: as §1
# [3] = molecular target: Thermus aquaticus T-Rex FRET fusion, initial construct #10, Rex(A)-cpmEGFP(145/146)-Rex(B)-mKOk, SEQ ID NO: 170 (Thermus aquaticus, UniProt Q9X2V5, E116G/F189I/K117M/K204T/K47E/R46D/R58D/S30A/Y98W); experiment: FRET response (emission spectra) of purified initial construct #10 in absence or presence of 40 uM NADH
# Experimental: as §1
# [4] = molecular target: T3, Thermus aquaticus T-Rex FRET fusion, initial construct #2, Rex(78-189)-cpmEGFP(145/146)-Rex(190-211)-Rex(78-211)-mKOk, SEQ ID NO: 162 (Thermus aquaticus, UniProt Q9X2V5, INS189[…]); experiment: FRET response (emission spectra) of purified initial construct #2 in absence or presence of 40 uM NADH
# T3 construct: His-tag purified from E. coli
# Experimental: as §1
# [5] = molecular target: Thermus aquaticus T-Rex FRET fusion, initial construct #13, mKOk-Rex(A)-mEGFP-Rex(B), SEQ ID NO: 173 (Thermus aquaticus, UniProt Q9X2V5, E116G/F189I/K117M/K204T/K47E/R46D/R58D/S30A/Y98W); experiment: FRET response (emission spectra) of purified initial construct #13 in absence or presence of 40 uM NADH
# Experimental: as §1
# [6] = molecular target: Thermus aquaticus T-Rex FRET fusion, initial construct #9, mKOk-Rex(A)-cpmEGFP(145/146)-Rex(B), SEQ ID NO: 169 (Thermus aquaticus, UniProt Q9X2V5, E116G/F189I/K117M/K204T/K47E/R46D/R58D/S30A/Y98W); experiment: FRET response (emission spectra) of purified initial construct #9 in absence or presence of 40 uM NADH
# Experimental: as §1
# [7] = molecular target: T4, Thermus aquaticus T-Rex FRET fusion, initial construct #7, mKOk-Rex(78-211)-Rex(78-189)-cpmEGFP(173/174)-Rex(190-211), SEQ ID NO: 167 (Thermus aquaticus, UniProt Q9X2V5, INS189[…]); experiment: FRET response (emission spectra) of purified initial construct #7 in absence or presence of 40 uM NADH
# T4 construct: His-tag purified from E. coli
# Experimental: as §1
# [8] = molecular target: T5, Thermus aquaticus T-Rex FRET fusion, initial construct #5, mKOk-Rex(78-189)-cpmEGFP(173/174)-Rex(190-211)-Rex(78-211), SEQ ID NO: 165 (Thermus aquaticus, UniProt Q9X2V5, INS189[…]); experiment: FRET response (emission spectra) of purified initial construct #5 in absence or presence of 40 uM NADH
# T5 construct: His-tag purified from E. coli
# Experimental: as §1
# [9] = molecular target: Thermus aquaticus T-Rex FRET fusion, initial construct #16, Rex(A)-mKOk-Rex(B)-mEGFP, SEQ ID NO: 176 (Thermus aquaticus, UniProt Q9X2V5, E116G/F189I/K117M/K204T/K47E/R46D/R58D/S30A/Y98W); experiment: FRET response (emission spectra) of purified initial construct #16 in absence or presence of 40 uM NADH
# Experimental: as §1
# [10] = molecular target: Thermus aquaticus T-Rex FRET fusion, initial construct #14, Rex(A)-mEGFP-Rex(B)-mKOk, SEQ ID NO: 174 (Thermus aquaticus, UniProt Q9X2V5, E116G/F189I/K117M/K204T/K47E/R46D/R58D/S30A/Y98W); experiment: FRET response (emission spectra) of purified initial construct #14 in absence or presence of 40 uM NADH
# Experimental: as §1
# [11] = molecular target: Thermus aquaticus T-Rex FRET fusion, initial construct #15, mEGFP-Rex(A)-mKOk-Rex(B), SEQ ID NO: 175 (Thermus aquaticus, UniProt Q9X2V5, E116G/F189I/K117M/K204T/K47E/R46D/R58D/S30A/Y98W); experiment: FRET response (emission spectra) of purified initial construct #15 in absence or presence of 40 uM NADH
# Experimental: as §1
# [12] = molecular target: Thermus aquaticus T-Rex FRET fusion, initial construct #12, Rex(A)-cpmEGFP(173/174)-Rex(B)-mKOk, SEQ ID NO: 172 (Thermus aquaticus, UniProt Q9X2V5, E116G/F189I/K117M/K204T/K47E/R46D/R58D/S30A/Y98W); experiment: FRET response (emission spectra) of purified initial construct #12 in absence or presence of 40 uM NADH
# Experimental: as §1
compound,measurement,setting,value
NC(=O)C1=CN([C@@H]2O[C@H](COP(=O)(O)OP(=O)(O)OC[C@H]3O[C@@H](n4cnc5c(N)ncnc54)[C@H](O)[C@@H]3O)[C@@H](O)[C@H]2O)C=CC1 [NADH],FRET response to NADH,[1],No response
same,FRET response to NADH,[2],No response
same,FRET response to NADH,[3],Good response
same,FRET response to NADH,[4],Poor response
same,FRET response to NADH,[5],Poor response
same,FRET response to NADH,[6],No response
same,FRET response to NADH,[7],No response
same,FRET response to NADH,[8],No response
same,FRET response to NADH,[9],Good response
same,FRET response to NADH,[10],Good response
same,FRET response to NADH,[11],No response
same,FRET response to NADH,[12],Good response
